Reference: PMC11997307, “Rat Sarcoma (RAS)-Protein-Targeting Synthetic Cell-Penetrating Peptide as an Anticancer Biomaterial” (Biomaterials Research, 2025)

Legend:
HT-29 cells = experiment: Cell viability, CCK-8 assay, HT-29; type: cell-based, human; settings: HT-29 (KRAS wild-type), CCK-8, 0-1,000 μM RBP, 24, 48 or 72 h, triplicate
Experimental: (§1) The viability of the cells was determined via Cell Counting Kit-8 (CCK-8; Dojindo Laboratories, Kumamoto, Japan) assay. The cells were plated in 96-well culture plates at a density of 5 × 10^3 cells per well and incubated for 24 h at 37 °C in a humidified incubator with 5% CO2. […] After incubation, the medium was replaced with fresh medium containing 10% (v/v) CCK-8 reagent, and the cells were incubated for 2 h. Absorbance was measured at 450 nm using a microplate reader. All experiments were performed in triplicate.

integrin alpha 3 = target: T1, integrin alpha 3 (Homo sapiens, UniProt P26006); experiment: SPR (Biacore) binding of RBP to immobilized integrin alpha 3 (selectivity control); settings: CM5 chip, integrin alpha 3 immobilized, 11 concentrations of RBP
T1 sequence (P26006 33-1051): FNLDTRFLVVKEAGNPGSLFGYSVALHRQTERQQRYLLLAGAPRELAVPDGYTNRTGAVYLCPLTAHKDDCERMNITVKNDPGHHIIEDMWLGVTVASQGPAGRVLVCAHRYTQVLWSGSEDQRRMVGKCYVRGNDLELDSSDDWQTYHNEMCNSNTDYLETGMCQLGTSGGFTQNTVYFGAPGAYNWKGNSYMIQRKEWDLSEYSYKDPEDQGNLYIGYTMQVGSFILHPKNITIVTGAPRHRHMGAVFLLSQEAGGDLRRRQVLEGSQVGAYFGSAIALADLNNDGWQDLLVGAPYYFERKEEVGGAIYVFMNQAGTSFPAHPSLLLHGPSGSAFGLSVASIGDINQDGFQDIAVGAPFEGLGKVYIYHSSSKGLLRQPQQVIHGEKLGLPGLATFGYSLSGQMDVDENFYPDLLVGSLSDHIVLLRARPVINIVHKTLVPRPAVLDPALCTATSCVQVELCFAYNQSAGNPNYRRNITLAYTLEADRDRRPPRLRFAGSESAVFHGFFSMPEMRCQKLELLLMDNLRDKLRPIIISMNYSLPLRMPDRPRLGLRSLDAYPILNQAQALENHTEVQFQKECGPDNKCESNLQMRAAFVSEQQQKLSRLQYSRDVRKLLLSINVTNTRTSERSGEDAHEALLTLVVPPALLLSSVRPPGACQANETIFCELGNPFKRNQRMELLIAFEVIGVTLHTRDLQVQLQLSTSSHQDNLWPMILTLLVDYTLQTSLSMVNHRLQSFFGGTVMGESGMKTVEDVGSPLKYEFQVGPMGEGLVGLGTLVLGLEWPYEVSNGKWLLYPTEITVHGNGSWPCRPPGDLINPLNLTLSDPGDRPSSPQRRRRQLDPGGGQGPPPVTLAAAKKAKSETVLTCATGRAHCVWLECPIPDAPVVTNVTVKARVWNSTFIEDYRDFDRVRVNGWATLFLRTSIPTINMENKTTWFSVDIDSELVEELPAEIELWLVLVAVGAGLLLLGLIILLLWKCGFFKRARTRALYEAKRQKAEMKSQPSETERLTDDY
Experimental: N-Hydroxysuccinimide (NHS) and EDC were used as cross-linkers. The remaining unreacted active groups on the dextran surface were blocked with ethanolamine. The running buffer consisted of 150 mM NaCl, 5 mM EDTA, and 0.05% Tween 20 in 10 mM Hepes, pH 7.4. A CM5 chip without immobilized protein was used as the blank surface in the Biacore assay (Biacore T100, GE Healthcare Bio-Sciences AB, Uppsala, Sweden). […] The dissociation phase was conducted for 5 min.

MDA-MB-231 cells [1] = experiment: Scratch wound migration assay; type: cell-based, human; settings: MDA-MB-231, serum-starved monolayer, 6-72 h
Experimental: To assess MDA-MB-231 cell migration, 2 methods were employed: a Transwell migration assay and a scratch assay. For the Transwell migration assay, 24-well Transwell plates (8-μm pore size; Costar, Corning Incorporated, Corning, NY, USA) were used to evaluate the invasive potential of the cells. […] Following a 6-h incubation period, nonmigratory cells were carefully removed from the upper surface of the membrane using a PBS-soaked cotton swab. The cells that successfully migrated through the membrane were fixed in methanol for 10 min, and Giemsa staining was used to visualize them. Images were captured using an Olympus DP72 camera at ×100 magnification, and the number of migrated cells in the treated samples was compared with that in the control samples. For the scratch assay, MDA-MB-231 cells (1 × 10^6 cells) were cultured in 6-well plates until they reached confluence. The cells were rinsed with PBS and incubated overnight in serum-free medium. A sterile 200-μl plastic pipette tip was used to create a linear scratch in the center of the monolayer. […] Images were taken immediately after scratching and again after 6, 24, 48, and 72 h of incubation using an Olympus CKX41 inverted microscope at ×20 magnification to evaluate the distance the cells migrated from the wound edge.

MDA-MB-231 cells [2] = experiment: Cell viability, CCK-8 assay, MDA-MB-231; type: cell-based, human; settings: MDA-MB-231 (KRAS G13D), CCK-8, 0-1,000 μM RBP, 24, 48 or 72 h, triplicate
Experimental: as §1

[3] = system: phospho-c-RAF and phospho-ERK1/2 in MCF-7 cells; experiment: Western blot of RAS-MAPK pathway, MCF-7; type: cell-based, human; settings: MCF-7, 10-250 μM RBP 6 h then 50 ng/ml EGF 10 min
Experimental: Protein expression was confirmed via Western blot analysis. Briefly, 9 × 10^5 cells were cultured in 100-mm-diameter dishes. When they reached 90% confluence, the cells were starved for 18 h in serum-free medium. […] At the end of the culture period, the cells were lysed for 20 min in cold lysis buffer on ice. Protein concentration was measured using bicinchoninic acid protein assays (Thermo Fisher Scientific, MA, USA). Equal aliquots of protein (40 μg) were boiled for 7 min in 5× sample buffer and separated by 10% SDS–PAGE. Proteins were transferred onto nitrocellulose membranes, followed by washing with Tris-buffered saline (TBS) containing 0.1% Tween 20 (TBST). The membranes were then blocked for 60 min at room temperature with 5% skim milk in TBST. Following the washing procedure, the membranes were incubated with primary antibodies (RAS, phospho-ERK1/2, ERK1/2, phospho-RAF proto-oncogene serine/threonine-protein kinase [phospho-c-RAF; S338], c-RAF [Cell Signaling Technology, Beverly, MA, USA], and GAPDH [Santa Cruz Biotechnology, Inc., Santa Cruz, CA, USA]) diluted in TBST containing 5% skim milk at 4 °C for 18 h. […] The membranes were subsequently washed 3 more times, and protein bands were detected using chemiluminescence reagents (West Pico PLUS, Thermo Fisher Scientific, USA).

MCF-7 cells = experiment: Cell viability, CCK-8 assay, MCF-7; type: cell-based, human; settings: MCF-7 (KRAS wild-type), CCK-8, 0-1,000 μM RBP, 24, 48 or 72 h, triplicate
Experimental: as §1

## C[C@@H](O)[C@H](NC(=O)[C@H](CO)NC(=O)[C@H](CS)NC(=O)[C@H](CCCCN)NC(=O)CN)C(=O)N[C@@H](CCCNC(=N)N)C(=O)NCC(=O)N[C@@H](CCCNC(=N)N)C(=O)N[C@@H](CCCCN)C(=O)N[C@@H](CS)C(=O)N[C@@H](CS)C(=O)N[C@@H](CCCNC(=N)N)C(=O)N[C@@H](CCCNC(=N)N)C(=O)N[C@@H](CCCCN)C(=O)N[C@@H](CCCCN)C(N)=O [RBP]
HT-29 cells
  decrease in the percentage of viable cells: not significant
Integrin alpha 3
  binding to unrelated receptor integrin alpha 3: did not bind
MDA-MB-231 cells [1]
  tumor cell migration in scratch assay: significantly inhibited
MDA-MB-231 cells [2]
  percentage of viable cells: reduced the percentage of viable KRAS G13D mutant cells in a dose-dependent manner
[3]
  RAF activation: did not inhibit
[3]; n = 3
  ERK1/2 phosphorylation: did not inhibit
MCF-7 cells
  decrease in the percentage of viable cells: not significant
